Measurements: patent publication US10221139B2, “Inhibitors of histone demethylases” (Gilead Sciences, Inc., priority 2012, dated 2019)

Experiments:
Assay type in all cases: biochemical
[1] = biological target: T1, GASC1 (KDM4C, JMJD2C) (Homo sapiens, UniProt Q9H3R0); assay: Histone lysine demethylase AlphaLISA assay, GASC1; settings: substrate BK9M3
T1 construct: 1-349; host or cells: E. coli
T1 sequence (Q9H3R0 1-349): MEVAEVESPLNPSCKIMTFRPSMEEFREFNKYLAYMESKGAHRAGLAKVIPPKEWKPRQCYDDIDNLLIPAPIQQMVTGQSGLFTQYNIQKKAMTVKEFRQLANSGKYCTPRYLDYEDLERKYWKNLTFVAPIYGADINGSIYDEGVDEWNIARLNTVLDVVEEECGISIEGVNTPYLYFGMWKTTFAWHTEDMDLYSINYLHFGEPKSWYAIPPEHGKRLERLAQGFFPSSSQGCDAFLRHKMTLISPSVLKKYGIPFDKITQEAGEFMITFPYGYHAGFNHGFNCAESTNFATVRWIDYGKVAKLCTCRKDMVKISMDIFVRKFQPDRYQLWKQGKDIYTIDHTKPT
In short: (§1)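 Per-enzyme reaction conditions apply; each enzyme sees compound for 10 min ahead of substrate addition. Bead-based AlphaLISA detection at room temperature, protected from light, gives the IC50.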

[2] = biological target: T2, FBXL10 (KDM2B) (Homo sapiens, UniProt Q8NHM5); assay: Histone lysine demethylase AlphaLISA assay, FBXL10; settings: substrate BH3K36M2
T2 construct: 1-650; purchased BPS, Bioscience, US; host or cells: Bac (baculovirus)
T2 sequence (Q8NHM5 1-650): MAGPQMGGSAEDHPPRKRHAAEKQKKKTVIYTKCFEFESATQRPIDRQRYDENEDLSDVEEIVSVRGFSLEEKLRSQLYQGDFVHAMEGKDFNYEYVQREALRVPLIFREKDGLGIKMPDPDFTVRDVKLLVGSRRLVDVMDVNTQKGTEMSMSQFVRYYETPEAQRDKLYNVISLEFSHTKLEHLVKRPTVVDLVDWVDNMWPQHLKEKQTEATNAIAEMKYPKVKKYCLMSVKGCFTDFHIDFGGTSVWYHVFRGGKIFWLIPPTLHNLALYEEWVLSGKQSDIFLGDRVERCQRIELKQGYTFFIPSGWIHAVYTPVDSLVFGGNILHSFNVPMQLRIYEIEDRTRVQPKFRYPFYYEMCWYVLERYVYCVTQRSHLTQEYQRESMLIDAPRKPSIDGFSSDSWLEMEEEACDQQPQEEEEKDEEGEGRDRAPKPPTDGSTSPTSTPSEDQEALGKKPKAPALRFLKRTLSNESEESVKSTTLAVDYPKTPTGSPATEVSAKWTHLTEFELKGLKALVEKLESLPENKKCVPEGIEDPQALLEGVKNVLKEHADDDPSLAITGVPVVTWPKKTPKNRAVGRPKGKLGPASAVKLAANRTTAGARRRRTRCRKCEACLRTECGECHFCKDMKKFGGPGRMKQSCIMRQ
Description: (§2) Example 2: Histone Lysine Demethylase AlphaLISA Assays for IC50 Value Determination
(§3) Assays are performed analogously to the protocol described by Perkin Elmer (Roy et al. Perkin Elmer Technical Note: AlphaLISA #12, April 2011).
(§4) Enzymes are dissolved in enzyme buffer and incubated for 10 min before 5 μL is added to 5 μL 3% DMSO solutions of compounds in enzyme buffer. Incubated for another 10 minutes, before 5 μL substrate solution is added and the reaction mixture is incubated at room temperature for the given period. 10 μL acceptor beads, suspended at given dilutions in Epigenetic Buffer (Perkin Elmer AL008) from stock, are added and the suspension is incubated 60 minutes in the dark at room temperature, before 10 μL suspension (at the given dilutions in Epigenetic Buffer) of streptavidin donor beads (Perkin Elmer 6760002) in Epigenetic Buffer is added. After incubation at room temperature in the dark the plates are read. Reaction conditions are seen in Table 2b.

[3] = biological target: T3, JARID1C (KDM5C) (Homo sapiens, UniProt P41229); assay: Histone lysine demethylase AlphaLISA assay, JARID1C; settings: substrate H3K4M3B
T3 construct: 2-1560; purchased BPS; host or cells: Bac (baculovirus)
Description: as §2, §3, §4

[4] = biological target: T4, JMJD2A (KDM4A) (Homo sapiens, UniProt O75164); assay: Histone lysine demethylase AlphaLISA assay, JMJD2A; settings: substrate BK9M3
T4 construct: 1-350; purchased BPS, Bioscience, US; host or cells: E. coli
T4 sequence (O75164 1-350): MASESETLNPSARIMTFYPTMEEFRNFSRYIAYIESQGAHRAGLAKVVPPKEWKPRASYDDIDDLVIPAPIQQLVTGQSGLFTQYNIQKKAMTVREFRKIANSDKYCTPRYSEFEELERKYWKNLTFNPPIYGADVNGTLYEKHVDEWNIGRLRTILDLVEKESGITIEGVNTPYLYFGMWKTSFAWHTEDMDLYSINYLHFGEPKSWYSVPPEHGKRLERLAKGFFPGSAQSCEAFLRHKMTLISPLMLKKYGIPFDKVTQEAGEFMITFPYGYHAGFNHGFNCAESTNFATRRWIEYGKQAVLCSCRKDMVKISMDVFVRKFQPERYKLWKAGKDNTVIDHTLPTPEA
Description: as §2, §3, §4

[5] = biological target: T5, JMJD3 (KDM6B) (Homo sapiens, UniProt O15054); assay: Histone lysine demethylase AlphaLISA assay, JMJD3; settings: substrate BK27M3
T5 construct: 1043-end; purchased BPS; host or cells: Bac (baculovirus)
Description: as §2, §3, §4

[6] = biological target: T6, UTX (KDM6A) (Homo sapiens, UniProt O15550); assay: Histone lysine demethylase AlphaLISA assay, UTX; settings: substrate BK27M3
T6 construct: 919-1401; host or cells: E. coli
In short: as §1

[7] = biological target: T7, JMJD1B (KDM3B) (Homo sapiens, UniProt Q7LBC6); assay: Histone lysine demethylase AlphaLISA assay, JMJD1B; settings: substrate BK9M2
T7 construct: 842-1761; host or cells: Bac (baculovirus)
T7 sequence (Q7LBC6 842-1761): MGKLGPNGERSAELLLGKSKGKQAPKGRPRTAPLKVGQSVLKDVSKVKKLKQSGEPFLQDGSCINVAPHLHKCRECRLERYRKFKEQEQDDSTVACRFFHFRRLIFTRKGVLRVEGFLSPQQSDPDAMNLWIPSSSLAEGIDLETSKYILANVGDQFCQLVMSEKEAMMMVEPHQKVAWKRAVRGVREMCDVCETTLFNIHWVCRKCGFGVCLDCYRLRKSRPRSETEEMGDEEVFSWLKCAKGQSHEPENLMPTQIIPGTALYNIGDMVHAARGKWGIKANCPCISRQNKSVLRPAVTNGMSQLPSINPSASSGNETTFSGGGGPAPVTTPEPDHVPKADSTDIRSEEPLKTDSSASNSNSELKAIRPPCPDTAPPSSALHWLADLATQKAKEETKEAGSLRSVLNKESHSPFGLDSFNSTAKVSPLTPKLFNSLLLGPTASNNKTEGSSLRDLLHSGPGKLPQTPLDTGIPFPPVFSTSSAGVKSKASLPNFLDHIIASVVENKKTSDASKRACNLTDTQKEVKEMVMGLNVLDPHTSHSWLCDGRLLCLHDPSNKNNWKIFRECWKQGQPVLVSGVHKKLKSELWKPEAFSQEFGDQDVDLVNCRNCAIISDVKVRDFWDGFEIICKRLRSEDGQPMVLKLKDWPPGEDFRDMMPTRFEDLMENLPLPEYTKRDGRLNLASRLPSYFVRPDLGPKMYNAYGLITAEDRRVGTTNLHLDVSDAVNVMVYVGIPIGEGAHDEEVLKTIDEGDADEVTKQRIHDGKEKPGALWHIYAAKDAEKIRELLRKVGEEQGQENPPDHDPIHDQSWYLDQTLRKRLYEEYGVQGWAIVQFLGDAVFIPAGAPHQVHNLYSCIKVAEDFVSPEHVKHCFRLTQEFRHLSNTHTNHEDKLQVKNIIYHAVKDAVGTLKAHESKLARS
Description: as §2, §3, §4

[8] = biological target: T8, JMJD2B (KDM4B) (Homo sapiens, UniProt O94953); assay: Histone lysine demethylase AlphaLISA assay, JMJD2B; settings: substrate BK9M3, read-out: JMUD2B IC50
T8 construct: 2-500; purchased BPS; host or cells: Bac (baculovirus)
T8 sequence (O94953 2-500): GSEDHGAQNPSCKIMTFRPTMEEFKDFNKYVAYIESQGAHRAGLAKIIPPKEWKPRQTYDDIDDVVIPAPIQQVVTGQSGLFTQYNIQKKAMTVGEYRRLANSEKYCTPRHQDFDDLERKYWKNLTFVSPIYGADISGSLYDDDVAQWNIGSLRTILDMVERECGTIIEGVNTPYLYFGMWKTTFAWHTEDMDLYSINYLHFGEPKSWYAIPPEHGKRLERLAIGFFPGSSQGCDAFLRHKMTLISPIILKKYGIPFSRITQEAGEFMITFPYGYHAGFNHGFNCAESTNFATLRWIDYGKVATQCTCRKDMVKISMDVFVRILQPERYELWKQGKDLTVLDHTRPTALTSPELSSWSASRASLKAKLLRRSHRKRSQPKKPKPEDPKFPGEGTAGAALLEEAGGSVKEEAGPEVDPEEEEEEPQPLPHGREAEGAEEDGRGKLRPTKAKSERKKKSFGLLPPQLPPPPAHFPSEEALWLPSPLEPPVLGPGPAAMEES
Description: as §2, §3, §4

[9] = biological target: T9, PLU1 (KDM5B) (Homo sapiens, UniProt Q9UGL1); assay: Histone lysine demethylase AlphaLISA assay, PLU1; settings: substrate H3K4M3B
T9 construct: 1-809; host or cells: E. coli
T9 sequence (Q9UGL1 1-809): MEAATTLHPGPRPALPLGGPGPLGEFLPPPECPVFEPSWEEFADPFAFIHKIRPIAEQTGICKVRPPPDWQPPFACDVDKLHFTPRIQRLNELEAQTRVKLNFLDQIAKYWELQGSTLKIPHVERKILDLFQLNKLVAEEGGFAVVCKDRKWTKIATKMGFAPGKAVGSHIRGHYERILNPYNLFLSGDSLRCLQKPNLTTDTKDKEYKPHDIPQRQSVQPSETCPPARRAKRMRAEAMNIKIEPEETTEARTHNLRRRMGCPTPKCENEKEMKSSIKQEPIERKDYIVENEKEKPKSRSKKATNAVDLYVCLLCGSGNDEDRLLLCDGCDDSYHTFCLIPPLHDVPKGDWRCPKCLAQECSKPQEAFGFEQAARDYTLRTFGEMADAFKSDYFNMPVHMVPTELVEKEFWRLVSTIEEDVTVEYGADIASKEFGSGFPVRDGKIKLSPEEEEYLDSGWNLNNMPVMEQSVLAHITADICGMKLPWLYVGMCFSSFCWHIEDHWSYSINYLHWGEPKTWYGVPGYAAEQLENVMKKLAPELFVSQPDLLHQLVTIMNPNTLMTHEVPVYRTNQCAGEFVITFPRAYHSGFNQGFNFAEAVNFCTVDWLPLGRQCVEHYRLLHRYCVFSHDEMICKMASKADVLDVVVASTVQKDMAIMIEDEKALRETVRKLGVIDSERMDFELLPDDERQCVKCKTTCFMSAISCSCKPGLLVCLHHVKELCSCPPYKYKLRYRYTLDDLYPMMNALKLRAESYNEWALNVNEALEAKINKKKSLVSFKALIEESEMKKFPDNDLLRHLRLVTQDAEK
In short: as §1

[10] = biological target: T10, PHF8 (KDM7) (Homo sapiens, UniProt Q9UPP1); assay: Histone lysine demethylase AlphaLISA assay, PHF8; settings: substrate BK9M2
T10 construct: KDM7 (PHF8); BRIC; 1-1322; Bac
Description: as §2, §3, §4

T3 sequence (P41229 2-1560): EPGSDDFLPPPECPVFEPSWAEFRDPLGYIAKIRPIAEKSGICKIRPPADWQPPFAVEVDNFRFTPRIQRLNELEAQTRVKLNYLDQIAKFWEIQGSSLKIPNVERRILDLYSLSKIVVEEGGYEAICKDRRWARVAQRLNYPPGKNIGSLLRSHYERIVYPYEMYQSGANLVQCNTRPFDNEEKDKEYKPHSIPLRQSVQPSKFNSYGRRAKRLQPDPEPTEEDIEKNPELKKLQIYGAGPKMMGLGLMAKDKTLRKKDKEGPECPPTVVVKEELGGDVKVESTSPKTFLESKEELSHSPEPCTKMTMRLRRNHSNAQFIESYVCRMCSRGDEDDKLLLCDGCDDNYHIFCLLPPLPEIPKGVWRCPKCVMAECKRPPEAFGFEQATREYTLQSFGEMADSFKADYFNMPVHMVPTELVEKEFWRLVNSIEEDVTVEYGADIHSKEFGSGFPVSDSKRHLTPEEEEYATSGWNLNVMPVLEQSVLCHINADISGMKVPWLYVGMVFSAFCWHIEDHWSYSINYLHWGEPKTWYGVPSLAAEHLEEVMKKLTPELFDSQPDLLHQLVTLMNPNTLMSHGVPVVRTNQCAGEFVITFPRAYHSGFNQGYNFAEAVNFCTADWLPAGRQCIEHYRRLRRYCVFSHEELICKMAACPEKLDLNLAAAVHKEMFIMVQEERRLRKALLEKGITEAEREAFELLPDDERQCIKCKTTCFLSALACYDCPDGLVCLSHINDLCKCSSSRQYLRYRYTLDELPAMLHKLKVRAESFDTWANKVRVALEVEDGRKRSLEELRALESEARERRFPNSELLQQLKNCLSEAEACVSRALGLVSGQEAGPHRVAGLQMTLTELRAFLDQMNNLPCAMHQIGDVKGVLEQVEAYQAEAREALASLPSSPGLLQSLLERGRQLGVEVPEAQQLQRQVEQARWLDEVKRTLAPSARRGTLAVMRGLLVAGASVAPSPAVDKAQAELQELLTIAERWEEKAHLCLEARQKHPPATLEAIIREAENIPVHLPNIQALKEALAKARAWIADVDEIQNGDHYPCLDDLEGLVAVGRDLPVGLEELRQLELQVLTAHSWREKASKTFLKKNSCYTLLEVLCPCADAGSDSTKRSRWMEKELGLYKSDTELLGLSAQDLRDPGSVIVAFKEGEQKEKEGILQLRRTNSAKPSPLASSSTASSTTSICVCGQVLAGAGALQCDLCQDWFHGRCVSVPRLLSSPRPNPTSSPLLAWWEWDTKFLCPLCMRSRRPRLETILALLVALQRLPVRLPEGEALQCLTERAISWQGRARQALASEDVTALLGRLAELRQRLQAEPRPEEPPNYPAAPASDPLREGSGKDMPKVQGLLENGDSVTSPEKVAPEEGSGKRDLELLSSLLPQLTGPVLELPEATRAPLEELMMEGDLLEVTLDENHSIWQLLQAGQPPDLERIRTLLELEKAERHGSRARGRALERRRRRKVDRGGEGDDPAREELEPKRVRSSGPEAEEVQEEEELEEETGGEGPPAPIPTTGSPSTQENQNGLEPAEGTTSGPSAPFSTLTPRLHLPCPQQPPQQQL
T5 sequence (O15054 1043-1682 isoform O15054-1 limits assumed): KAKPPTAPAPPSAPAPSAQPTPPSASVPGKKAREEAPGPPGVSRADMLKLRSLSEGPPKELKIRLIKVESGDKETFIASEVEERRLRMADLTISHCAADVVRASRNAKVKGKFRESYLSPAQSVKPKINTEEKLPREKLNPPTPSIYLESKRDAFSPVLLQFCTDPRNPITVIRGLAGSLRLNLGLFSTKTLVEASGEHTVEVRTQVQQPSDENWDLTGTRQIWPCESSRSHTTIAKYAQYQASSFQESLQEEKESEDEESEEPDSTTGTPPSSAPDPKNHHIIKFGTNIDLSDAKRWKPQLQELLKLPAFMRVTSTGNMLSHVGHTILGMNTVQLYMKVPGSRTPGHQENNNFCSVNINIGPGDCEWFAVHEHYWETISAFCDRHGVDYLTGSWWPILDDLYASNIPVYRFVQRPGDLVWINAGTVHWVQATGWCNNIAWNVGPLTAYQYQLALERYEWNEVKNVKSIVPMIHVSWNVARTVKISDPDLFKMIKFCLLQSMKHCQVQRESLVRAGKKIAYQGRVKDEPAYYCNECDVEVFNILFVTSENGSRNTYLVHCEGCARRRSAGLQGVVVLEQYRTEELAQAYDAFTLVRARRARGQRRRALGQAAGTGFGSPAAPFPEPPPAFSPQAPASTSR
T6 sequence (O15550 919-1401): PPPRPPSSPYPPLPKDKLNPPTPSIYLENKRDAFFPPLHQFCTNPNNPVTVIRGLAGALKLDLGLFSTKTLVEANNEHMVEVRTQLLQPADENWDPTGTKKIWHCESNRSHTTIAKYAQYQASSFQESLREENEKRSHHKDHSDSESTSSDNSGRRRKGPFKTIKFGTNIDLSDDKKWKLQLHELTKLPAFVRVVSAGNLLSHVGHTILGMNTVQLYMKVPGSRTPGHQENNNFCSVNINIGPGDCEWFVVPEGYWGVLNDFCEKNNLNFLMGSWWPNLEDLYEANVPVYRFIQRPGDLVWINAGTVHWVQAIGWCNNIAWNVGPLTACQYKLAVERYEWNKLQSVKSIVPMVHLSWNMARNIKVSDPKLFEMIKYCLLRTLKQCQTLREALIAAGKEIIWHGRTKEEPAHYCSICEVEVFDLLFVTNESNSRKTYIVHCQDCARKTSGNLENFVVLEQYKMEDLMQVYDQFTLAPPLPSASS
T10 sequence (Q9UPP1 37-477 limits assumed): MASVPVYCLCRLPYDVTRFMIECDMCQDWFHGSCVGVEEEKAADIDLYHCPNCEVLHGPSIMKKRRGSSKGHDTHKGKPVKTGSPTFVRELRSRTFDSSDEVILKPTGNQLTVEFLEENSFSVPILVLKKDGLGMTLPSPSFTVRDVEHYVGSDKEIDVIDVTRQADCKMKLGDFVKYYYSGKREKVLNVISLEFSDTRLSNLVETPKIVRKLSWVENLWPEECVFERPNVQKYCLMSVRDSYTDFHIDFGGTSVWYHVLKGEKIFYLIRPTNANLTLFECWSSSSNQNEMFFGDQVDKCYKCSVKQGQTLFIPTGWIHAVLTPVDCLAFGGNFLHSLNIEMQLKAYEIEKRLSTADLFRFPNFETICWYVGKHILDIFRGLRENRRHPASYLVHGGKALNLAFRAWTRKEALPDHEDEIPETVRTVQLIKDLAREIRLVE

Row | IC50 [1] | IC50 [2] | IC50 [3] | IC50 [4] | IC50 [5] | IC50 [6] | IC50 [7] | IC50 [8] | IC50 [9] | IC50 [10] | Compound
1 | 0.1 to 1 µM | ≥ 1 µM | < 0.1 µM | < 0.1 µM | ≥ 1 µM | ≥ 1 µM | – | – | – | – | O=C(O)c1ccnc(CNCCCn2ccnc2)c1 [#1, 2-({[3-(1H-imidazol-1-yl)propyl]amino}methyl)pyridine-4-carboxylic acid]
2 | < 0.1 µM | – | – | < 0.1 µM | ≥ 1 µM | ≥ 1 µM | ≥ 1 µM | < 0.1 µM | – | – | CN(C)CCNCc1cc(C(=O)O)ccn1 [#2, 2-({[2-(dimethylamino)ethyl]amino}methyl)pyridine-4-carboxylic acid]
3 | ≥ 1 µM | – | – | ≥ 1 µM | ≥ 1 µM | ≥ 1 µM | ≥ 1 µM | ≥ 1 µM | < 0.1 µM | – | COc1ccc(CNCc2cc(C(=O)O)ccn2)c(OC)c1 [#11, 2-({[(2,4-dimethoxyphenyl)methyl]amino}methyl)pyridine-4-carboxylic acid]
4 | 0.1 to 1 µM | – | < 0.1 µM | < 0.1 µM | ≥ 1 µM | ≥ 1 µM | – | < 0.1 µM | < 0.1 µM | – | Cn1c(CNCc2cc(C(=O)O)ccn2)nc2ccccc21 [#15, 2-({[(1-methyl-1H-1,3-benzodiazol-2-yl)methyl]amino}methyl)pyridine-4-carboxylic acid]
5 | 0.1 to 1 µM | – | < 0.1 µM | 0.1 to 1 µM | ≥ 1 µM | ≥ 1 µM | – | < 0.1 µM | < 0.1 µM | ≥ 1 µM | O=C(O)c1ccnc(CNCCCN2CCCC2)c1 [#46, 2-({[3-(pyrrolidin-1-yl)propyl]amino}methyl)pyridine-4-carboxylic acid]
6 | < 0.1 µM | – | < 0.1 µM | ≥ 1 µM | ≥ 1 µM | ≥ 1 µM | – | < 0.1 µM | < 0.1 µM | ≥ 1 µM | CCN(CC)CCCCNCc1cc(C(=O)O)ccn1 [#48, 2-({[4-(diethylamino)butyl]amino}methyl)pyridine-4-carboxylic acid]
7 | < 0.1 µM | ≥ 1 µM | – | – | – | < 0.1 µM | – | – | < 0.1 µM | – | CCN(CCN(C)C)C(=O)CNCc1cc(C(=O)OCC(F)F)ccn1 [#91, 2,2-difluoroethyl 2-{[({[2-(dimethylamino)ethyl](ethyl)carbamoyl}methyl)amino]methyl}pyridine-4-carboxylate]
8 | ≥ 1 µM | 0.1 to 1 µM | – | – | – | 0.1 to 1 µM | – | – | ≥ 1 µM | – | CC(C)C[C@H](NCc1cc(C(=O)O)ccn1)C(=O)NC(C)(C)C [#92, 2-({[(1S)-1-(tert-butylcarbamoyl)-3-methylbutyl]amino}methyl)pyridine-4-carboxylic acid]
